Assay [1] addresses K-Ras^G12C : hSOS1 interaction (Homo sapiens, UniProt Q07889). The assay is described as follows: Biochemical assay 1: K-Ras^G12C interaction assay with hSOS1 (HTRF). It counts as binding. Particulars: read-out: Assay 1 (KRAS-SOS Interaction) activity expressed as IC50. The procedure:
Biochemical assay 1: K-Ras^G12C Interaction Assay with hSOS1
This assay quantifies the equilibrium interaction of human SOS1 with K-Ras^Gl2C. Detection of the interaction is achieved by measuring homogenous time-resolved fluorescence resonance energy transfer (HTRF) from antiGST-Europium (FRET donor) bound to GST-K-Ras^G12C to anti-6His-XL665 bound to His-tagged hSOS1 (FRET-acceptor).
The assay buffer contained 5 mM HEPES pH 7.4 (Applichem), 150 mM NaCl (Sigma), 10 mM EDTA (Promega), 1 mM DTT (Thermofisher), 0.05% BSA Fraction V, pH 7.0, (ICN Biomedicals), 0.0025% (v/v) Igepal (Sigma) and 100 mM KF (FLUKA).
Concentrations of protein batches used were optimized to be within the linear range of the HTRF signal. A Ras working solution was prepared in assay buffer containing typically 10 nM GST-hK-RasG12C and 2 nM antiGST-Eu(K) (Cisbio, France). A SOS working solution was prepared in assay buffer containing typically 20 nM His-hSOS1 and 10 nM anti-6His-XL665 (Cisbio, France). An inhibitor control solution was prepared in assay buffer containing 10 nM anti-6His-XL665 without hSOS1.
(§1) Fifty nl of a 100-fold concentrated solution of the test compound in DMSO were transferred into a black microtiter test plate (384 or 1536, Greiner Bio-One, Germany). For this, either a Hummingbird liquid handler (Digilab, MA, USA) or an Echo acoustic system (Labcyte, CA, USA) was used.
All steps of the assay were performed at 20° C. A volume of 2.5 μl of the Ras working solution was added to all wells of the test plate using a Multidrop dispenser (Thermo Labsystems). After 2 min preincubation, 2.5 μl of the SOS working solution were added to all wells except for those wells at the side of the test plate that were subsequently filled with 2.5 μl of the inhibitor control solution. After 60 min incubation the fluorescence was measured with a Pherastar (BMG, Germany) using the HTRF module (excitation 337 nm, emission 1: 620 nm, emission 2: 665 nm).
(§2) IC50 values were calculated by 4-Parameter fitting using a commercial software package (Genedata Screener, Switzerland).
In general terms: In TR-FRET formats the signal depends on donor and acceptor labels being close together.

For assay [2], the target named is human SOS1 (nucleotide exchange of K-Ras^G12C) (Homo sapiens, UniProt Q07889). The assay is described as follows: Biochemical assay 2: K-Ras^G12C activation assay by hSOS1 at high GTP concentration (HTRF). Particulars: high GTP; read-out: Assay 2 (KRAS-Activation by SOS high GTP) activity expressed as IC50.
Text: Biochemical Assay 2: K-Ras^G12C Activation Assay by hSOS1 at High GTP Concentration
This assay quantifies human SOS1-mediated nucleotide exchange of K-Ras^G12C preloaded with a fluorescent […] and in presence of an excess of free GTP. Loaded hK-Ras^G12C generates a high HTRF-signal by energy transfer from antiGST-Terbium (FRET donor) bound to K-Ras to the loaded fluorescent GDP analog (FRET-acceptor). SOS1 activity exchanges the fluorescent GDP for non-fluorescent GTP and therefore leads to a reduction of the HTRF signal.
The fluorescent GDP-analog EDA-GDP-Dy647P1 (2′/3′-O-(2-Aminoethyl-carbamoyl)-guanosine-5′-diphosphate labelled with Dy647P1 (Dyomics GmbH, Germany)) was synthesized by Jena Biosciences GmbH (Germany) and supplied as a 1 mM aqueous solution.
Concentrations of protein batches used were optimized to be within the linear range of the HTRF signal.
Preparation of GST-tagged hK-Ras^Gl2C loaded with fluorescent nucleotide was performed as follows: incubation of 11.5 μM hK-Ras^Gl2C with 5-fold excess GDP-Dy647 nucleotide (54 μM) in 500 μl NLS-buffer (RAS activation Kit Jena Bioscience, Kat. #PR-950) for 10 min at 37° C. Addition of 20 μl 1 M MgCl2 (Sigma) to final 40 mM and store on ice. Purification into buffer (10 mM HEPES pH 7.4 (Applichem), 150 mM NaCl (Sigma), 5 mM MgCl2 (Sigma)) by use of a PD-Minitrap desalting column (GE Healthcare). Concentration of 1 ml purified hK-Ras-GDP-Dy647 is approx. 4-5 μM.
(§3) The assay buffer contained 10 mM HEPES pH 7.4 (Applichem), 150 mM NaCl (Sigma), 5 mM MgCl2 (Sigma), 1 mM DTT (Thermofisher), 0.05% BSA Fraction V, pH 7.0, (ICN Biomedicals), 0.0025% (v/v) Igepal (Sigma).
A Ras working solution was prepared in assay buffer containing typically 80 nM loaded GST-hK-RasG12C-EDA-GDP-Dy647P1 and 2 nM antiGST-Tb (Cisbio, France). A hSOS1 working solution was prepared in assay buffer containing typically 8 nM His-hSOS1 and 100 μM GTP (Jena Bioscience, Germany). An inhibitor control solution was prepared in assay buffer containing the same concentration of […].
as §1
All steps of the assay were performed at 20° C. A volume of 2.5 μl of the Ras working solution was added to all wells of the test plate using a Multidrop dispenser (Thermo Labsystems). After 2 min preincubation, 2.5 μl of the hSOS1 working solution were added to all wells except for those wells at the side of the test plate that were subsequently filled with 2.5 μl of the inhibitor control solution. After 20 min incubation the fluorescence was measured with a Pherastar (BMG, Germany) using the HTRF module (excitation 337 nm, emission 1: 620 nm, emission 2: 665 nm).
as §2

In assay [3] the target is human SOS1 (loading of human K-Ras^G12C-GDP with fluorescent GTP-analog) (Homo sapiens, UniProt Q07889). The assay is described as follows: Biochemical assay 3: K-Ras^G12C activation assay by hSOS1 (HTRF). As to conditions: no GTP; read-out: Assay 3 (KRAS-Activation by SOS no GTP) activity expressed as IC50.
Text: Biochemical assay 3: K-Ras^G12C Activation Assay by hSOS1
K-Ras is a small GTPase that can bind GDP and GTP. The guanine nucleotide exchange factor SOS catalyzes the activation of K-Ras by promoting the exchange of GDP to GTP. SOS binds to K-Ras-GDP thereby opening the GDP-binding pocket to facilitate GDP release. Rebinding of excess nucleotide leads to dissociation of the K-Ras-SOS intermediate complex leaving K-Ras loaded with the nucleotide.
This assay quantifies human SOS1-mediated loading of human K-Ras^G12C-GDP with a fluorescent GTP-analog. Detection of successful loading is achieved by measuring homogenous time-resolved fluorescence resonance energy transfer (HTRF) from antiGST-Terbium (FRET donor) bound to GST-K-RasG12C to the loaded fluorescent GTP analog (FRET-acceptor).
The fluorescent GTP-analog EDA-GTP-Dy647P1 (2′/3′-O-(2-Aminoethyl-carbamoyl)-guanosine-5′-triphosphate labelled with Dy647P1 (Dyomics GmbH, Germany)) was synthesized by Jena Biosciences GmbH (Germany) and supplied as a 1 mM aqueous solution.
as §3
Concentrations of protein batches used were optimized to be within the linear range of the HTRF signal. A Ras working solution was prepared in assay buffer containing typically 100 nM GST-hK-RasG12C and 2 nM antiGST-Tb (Cisbio, France). A hSOS1 working solution was prepared in assay buffer containing typically 20 nM hSOS1 and 200 nM EDA-GTP-Dy647P1. An inhibitor control solution was prepared in assay buffer containing 200 nM EDA-GTP-Dy647P1 without hSOS1.
as §1
All steps of the assay were performed at 20° C. A volume of 2.5 μl of the Ras working solution was added to all wells of the test plate using a Multidrop dispenser (Thermo Labsystems). After 10 min preincubation, 2.5 μl of the hSOS1 working solution were added to all wells except for those wells at the side of the test plate that were subsequently filled with 2.5 μl of the inhibitor control solution. After 30 min incubation the fluorescence was measured with a Pherastar (BMG, Germany) using the HTRF module (excitation 337 nm, emission 1: 620 nm, emission 2: 665 nm).
as §2

The values below come from US20240083857A1, “2-Methyl-Quinazolines” (Bayer Pharma Aktiengesellschaft, priority 2017, published 2024).

The structures appear in SMILES notation.

With `COc1cc2nc(C)nc(N[C@H](C)c3cccc(-c4ccc5cc[nH]c5c4)c3)c2cc1OC` [Example 109, N-{(1R)-1-[3-(1H-indol-6-yl)phenyl]ethyl}-6,7-dimethoxy-2-methylquinazolin-4-amine], the results for the half-maximal inhibitory concentration (IC50) in assay [1], in assay [2] and in assay [3] were 1 µM, 0.392 µM and 1.41 µM, respectively.
The corresponding values for `C/C=C(\C)c1ccc([C@H](C)Nc2nc(C)nc3cc(OC)c(OC)cc23)s1` (racemic) [Example 143, N-[1-{5-[(2E)-but-2-en-2-yl]thiophen-2-yl}ethyl]-6,7-dimethoxy-2-methylquinazolin-4-amine] are 7.64 µM, 8.76 µM and 17.8 µM.
`COc1cc2nc(C)nc(N[C@@H](C)c3ccc(-c4cc5ccccc5n4C)s3)c2cc1OC` (racemic) [Example 155, 6,7-dimethoxy-2-methyl-N-{1-[5-(1-methyl-1H-indol-2-yl)thiophen-2-yl]ethyl}quinazolin-4-amine]: the results for the IC50 in assay [1], in assay [2] and in assay [3] were 0.992 µM, 1.47 µM and 1.64 µM, respectively.
The like results for `COc1cccc(-c2cccc([C@@H](C)Nc3nc(C)nc4cc(OC)c(OC)cc34)c2)c1` [Example 99, 6,7-dimethoxy-N-[(1R)-1-(3′-methoxybiphenyl-3-yl)ethyl]-2-methylquinazolin-4-amine] were, in that order, 2.18 µM, 1.42 µM and 2.63 µM.
The like results for `COc1cc2nc(C)nc(N[C@H](C)c3cccc(-c4ccoc4)c3)c2cc1OC` [Example 86, N-{(1R)-1-[3-(furan-3-yl)phenyl]ethyl}-6,7-dimethoxy-2-methylquinazolin-4-amine] were, in that order, 0.581 µM, 0.935 µM and 0.693 µM.
For `COc1cc2nc(C)nc(N[C@H](C)c3cccc(C4=CCCC4)c3)c2cc1OC` [Example 117, N-{(1R)-1-[3-(cyclopent-1-en-1-yl)phenyl]ethyl}-6,7-dimethoxy-2-methylquinazolin-4-amine], the figures for the IC50 in assay [1], in assay [2] and in assay [3] were 1.65 µM, 1.35 µM and 3.08 µM, respectively.
For `COc1cc2nc(C)nc(N[C@@H](C)c3ccc(-c4cccc(CNS(C)(=O)=O)c4)s3)c2cc1OC` (racemic) [Example 139, N-[3-(5-{1-[(6,7-dimethoxy-2-methylquinazolin-4-yl)amino]ethyl}thiophen-2-yl)benzyl]methanesulfonamide], the IC50 in assay [1] was found to be 4.7 µM; in assay [2] it was 6.13 µM.
In the case of `COc1cc2nc(C)nc(N[C@@H](C)c3ccc(-c4ccc(S(C)(=O)=O)cc4)s3)c2cc1OC` (racemic) [Example 149, 6,7-dimethoxy-2-methyl-N-[1-{5-[4-(methylsulfonyl)phenyl]thiophen-2-yl}ethyl]quinazolin-4-amine], the IC50 in assay [1] was 2.36 µM; in assay [2], 4.3 µM.
The like results for `COc1cc2nc(C)nc(N[C@@H](C)c3ccc(-c4ccc(CNS(C)(=O)=O)cc4)s3)c2cc1OC` (racemic) [Example 140, N-[4-(5-{1-[(6,7-dimethoxy-2-methylquinazolin-4-yl)amino]ethyl}thiophen-2-yl)benzyl]methanesulfonamide] were, in that order, 5.33 µM and 5.26 µM.
The corresponding values for `COc1cc2nc(C)nc(N[C@@H](C)c3ccc(-c4cccc(S(C)(=O)=O)c4)s3)c2cc1OC` (racemic) [Example 173, 6,7-dimethoxy-2-methyl-N-[1-{5-[3-(methylsulfonyl)phenyl]thiophen-2-yl}ethyl]quinazolin-4-amine] are 6.88 µM and 8.05 µM.
The corresponding values for `COc1cc2nc(C)nc(N[C@@H](C)c3ccc(-c4ccc(-c5nnc(C)o5)cc4)s3)c2cc1OC` (racemic) [Example 128, 6,7-dimethoxy-2-methyl-N-[1-{5-[4-(5-methyl-1,3,4-oxadiazol-2-yl)phenyl]thiophen-2-yl}ethyl]quinazolin-4-amine] are 13.9 µM and 16.9 µM.
Turning to `COc1cc2nc(C)nc(N[C@@H](C)c3ccc(-c4ccc(CNC(C)=O)cc4)s3)c2cc1OC` (racemic) [Example 138, N-[4-(5-{1-[(6,7-dimethoxy-2-methylquinazolin-4-yl)amino]ethyl}thiophen-2-yl)benzyl)acetamide], the IC50 in assay [1] stood at 5.57 µM; in assay [2], 7.43 µM.
On to `COc1cc2nc(C)nc(N[C@@H](C)c3ccc(-c4cncnc4)s3)c2cc1OC` (racemic) [Example 42, 6,7-dimethoxy-2-methyl-N-{1-[5-(pyrimidin-5-yl)thiophen-2-yl]ethyl}quinazolin-4-amine], for which the results for the IC50 in assay [1] and in assay [2] were 4.27 µM and 5.58 µM, respectively.

By IC50 is commonly meant the concentration that inhibits the measured activity by half.
